Source: patent US20250340538A1, “IMIDAZOLONE DERIVATIVES AS INHIBITORS OF PROTEIN KINASES IN PARTICULAR DYRK1A, CLK1 AND/OR CLK4” (PERHA PHARMACEUTICALS, priority 2021, published 2025)
Several values for one entry are separate records, joined by “and”; a condition that tells them apart may be missing. Identical values can stand only once. Like-named read-outs stand apart in the source and are kept apart here.

Assays:
Assay type in all cases: biochemical
[1] = biological target: T1, CLK1 (Homo sapiens, UniProt P49759); test: Radiometric protein kinase assay (33PanQinase Activity Assay), CLK1
T1 construct: GST-fusion or His-tag (not specified per kinase); purchased ProQinase GmbH; host or cells: Sf9 insect cells or E. coli (not specified per kinase)
Outline: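 33P incorporation counted by microplate scintillation after H3PO4 stop and NaCl washes; IC50 fitted from dose-response curves. Reactions of kinase/substrate, [γ-33P]-ATP and compound ran 60 min at 30 °C, 1% DMSO final, 10 concentrations (10 μM–30 nM).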

[2] = biological target: T2, CLK4 (Homo sapiens, UniProt Q9HAZ1); test: Radiometric protein kinase assay (33PanQinase Activity Assay), CLK4; conditions: read-out: IC50 on CLK4 (most potent CLK4 inhibitors)
T2 construct: GST-fusion or His-tag (not specified per kinase); purchased ProQinase GmbH; host or cells: Sf9 insect cells or E. coli (not specified per kinase)
Procedure: (§1) Assays were performed by ProQinase GmbH (Engesserstr. 4, D-79108 Freiburg, Germany. www.proqinase.com). The IC50 profile of all compounds was determined using 12 protein kinases (CDK2/cyclin E, CK1ε, CLK1, 2, 3, 4, DYRK1A, 1B, 2, 3, 4, GSK3β).
(§2) The compounds were provided as […] in 100% DMSO. Prior to testing, the 1 μM stock solutions were subjected to a serial, semi-logarithmic dilution using 100% DMSO as a solvent. […] In the process, 90 μl H2O were added to each well of each compound dilution plate. To minimize potential precipitation, the H2O was added to each plate only a few minutes before the transfer of the compound solutions into the assay plates. The plate was shaken thoroughly, resulting in a compound dilution plate/10% DMSO.
(§3) For the assays (see below), 5 μL solution from each well of the compound dilution plates/10% DMSO were transferred into the assay plates. The final volume of the assay was 50 μL. All compounds were tested at 10 final assay concentrations in the range from 10 μM to 30 nM. The final DMSO concentration in the reaction cocktails was 1% in all cases.
(§4) All protein kinases provided by ProQinase were expressed in Sf9 insect cells or in E. coli as recombinant GST-fusion proteins or His-tagged proteins, either as full-length or enzymatically active fragments. All kinases were produced from human cDNAs and purified by either GSH-affinity chromatography or immobilized metal. Affinity tags were removed from a number of kinases during purification. The purity of the protein kinases was examined by SDS-PAGE/Coomassie staining, the identity was checked by mass spectroscopy.
(§5) A radiometric protein kinase assay (33PanQinase® Activity Assay) was used for measuring the kinase activity of the 12 protein kinases. All kinase assays were performed in 96-well FlashPlates™ from PerkinElmer (Boston, MA, USA) in a 50 μL reaction volume. The reaction cocktail was pipetted in four steps in the following order: • 25 μL of assay buffer (standard buffer/[γ-^33P]-ATP), • 10 μL of ATP solution (in H2O), • 5 μL of test compound (in 10% DMSO), • 10 μL of enzyme/substrate mixture.
(§6) The reaction cocktails were incubated at 30° C. for 60 minutes. The reaction was stopped with 50 μL of 2% (v/v) H3PO4, plates were aspirated and washed two times with 200 μL 0.9% (w/v) NaCl. Incorporation of ^33Pi was determined with a microplate scintillation counter (Microbeta, Wallac). The IC50 values for all compounds were calculated from the dose response curves
(§7) As a parameter for assay quality, the Z′-factor (Zhang et al., J. Biomol. Screen. 2: 67-73, 1999) for the low and high controls of each assay plate (n=8) was used. ProQinase's criterion for repetition of an assay plate is a Z′-factor below 0.4 (Iversen et al., J. Biomol. Screen. 3: 247-252, 2006).

[3] = biological target: T3, DYRK1A (Homo sapiens, UniProt Q13627); test: Radiometric protein kinase assay (33PanQinase Activity Assay), DYRK1A; conditions: for Selectivity Class DYRK1A vs. CLK1: ratio of IC50 on CLK1 over IC50 on DYRK1A; for Selectivity Class DYRK1A vs. DYRK1B: ratio of IC50 on DYRK1B over IC50 on DYRK1A
T3 construct: GST-fusion or His-tag (not specified per kinase); purchased ProQinase GmbH; host or cells: Sf9 insect cells or E. coli (not specified per kinase)
Outline: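 Recombinant human kinase, expressed in Sf9 or E. coli, in a radiometric [γ-33P]-ATP assay at 30 °C for 60 min. Compounds tested at 10 concentrations from 10 μM to 30 nM, 1% DMSO final. 33Pi incorporation measured by scintillation counting; IC50 from dose-response curves.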

[4] = biological target: T4, DYRK1B (Homo sapiens, UniProt Q9Y463); test: Radiometric protein kinase assay (33PanQinase Activity Assay), DYRK1B; conditions: read-out: IC50 on DYRK1B (most potent DYRK1B inhibitors)
T4 construct: GST-fusion or His-tag (not specified per kinase); purchased ProQinase GmbH; host or cells: Sf9 insect cells or E. coli (not specified per kinase)
Procedure: as §1, §2, §3, §4, §5, §6, §7

[5] = biological target: T5, CLK2 (Homo sapiens, UniProt P49760); test: Radiometric protein kinase assay (33PanQinase Activity Assay), CLK2; conditions: read-out: IC50 on CLK2 (most potent CLK2 inhibitors)
T5 construct: GST-fusion or His-tag (not specified per kinase); purchased ProQinase GmbH; host or cells: Sf9 insect cells or E. coli (not specified per kinase)
Procedure: as §1, §2, §3, §4, §5, §6, §7

[6] = biological target: T6, DYRK2 (Homo sapiens, UniProt Q92630); test: Radiometric protein kinase assay (33PanQinase Activity Assay), DYRK2; conditions: read-out: IC50 on DYRK2 (most potent DYRK2 inhibitors)
T6 construct: GST-fusion or His-tag (not specified per kinase); purchased ProQinase GmbH; host or cells: Sf9 insect cells or E. coli (not specified per kinase)
T6 sequence (Q92630 1-601): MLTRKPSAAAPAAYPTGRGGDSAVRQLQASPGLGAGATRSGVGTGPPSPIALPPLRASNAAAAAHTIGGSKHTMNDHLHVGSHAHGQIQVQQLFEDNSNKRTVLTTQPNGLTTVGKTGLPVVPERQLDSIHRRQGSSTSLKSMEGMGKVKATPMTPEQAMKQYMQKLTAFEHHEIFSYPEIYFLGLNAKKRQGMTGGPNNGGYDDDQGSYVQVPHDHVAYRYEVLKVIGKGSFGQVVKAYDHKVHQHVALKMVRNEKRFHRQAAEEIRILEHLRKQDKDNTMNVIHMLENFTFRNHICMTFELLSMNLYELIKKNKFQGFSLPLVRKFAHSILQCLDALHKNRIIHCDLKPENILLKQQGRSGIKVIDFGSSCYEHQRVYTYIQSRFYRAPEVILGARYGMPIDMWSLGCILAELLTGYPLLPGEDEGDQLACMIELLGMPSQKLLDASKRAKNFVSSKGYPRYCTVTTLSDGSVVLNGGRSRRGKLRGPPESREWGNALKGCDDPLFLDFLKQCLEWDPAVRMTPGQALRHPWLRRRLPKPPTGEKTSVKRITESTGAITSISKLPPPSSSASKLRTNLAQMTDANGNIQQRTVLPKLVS
Procedure: as §1, §2, §3, §4, §5, §6, §7

[7] = biological target: T7, DYRK3 (Homo sapiens, UniProt O43781); test: Radiometric protein kinase assay (33PanQinase Activity Assay), DYRK3; conditions: read-out: IC50 on DYRK3 (most potent DYRK3 inhibitors)
T7 construct: GST-fusion or His-tag (not specified per kinase); purchased ProQinase GmbH; host or cells: Sf9 insect cells or E. coli (not specified per kinase)
T7 sequence (O43781 1-588): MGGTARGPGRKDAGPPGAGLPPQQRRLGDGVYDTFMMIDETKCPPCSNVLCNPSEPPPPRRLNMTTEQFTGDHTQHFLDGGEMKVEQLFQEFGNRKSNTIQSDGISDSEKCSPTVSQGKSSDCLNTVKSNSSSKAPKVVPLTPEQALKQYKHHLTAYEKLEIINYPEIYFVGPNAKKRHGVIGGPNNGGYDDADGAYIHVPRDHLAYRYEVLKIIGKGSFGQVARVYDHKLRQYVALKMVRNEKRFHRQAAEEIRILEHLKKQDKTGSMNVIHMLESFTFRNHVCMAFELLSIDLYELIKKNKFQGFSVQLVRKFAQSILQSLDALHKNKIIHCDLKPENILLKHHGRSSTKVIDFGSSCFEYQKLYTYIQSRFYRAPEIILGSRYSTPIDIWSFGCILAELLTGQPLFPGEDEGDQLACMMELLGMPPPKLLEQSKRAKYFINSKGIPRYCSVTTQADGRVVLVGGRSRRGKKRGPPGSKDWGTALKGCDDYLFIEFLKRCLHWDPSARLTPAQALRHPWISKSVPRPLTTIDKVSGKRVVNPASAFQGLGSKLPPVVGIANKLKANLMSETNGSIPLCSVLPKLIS
Procedure: as §1, §2, §3, §4, §5, §6, §7

[8] = biological target: T8, CLK3 (Homo sapiens, UniProt P49761); test: Radiometric protein kinase assay (33PanQinase Activity Assay), CLK3; conditions: read-out: IC50 on CLK3 (most potent CLK3 inhibitors)
T8 construct: GST-fusion or His-tag (not specified per kinase); purchased ProQinase GmbH; host or cells: Sf9 insect cells or E. coli (not specified per kinase)
Procedure: as §1, §2, §3, §4, §5, §6, §7

[9] = IC50 class A to E, read-out: Potency Class CLK1
[10] = class by IC50 on CLK1, from dose-response curves, read-out: Potency Class CLK1
[11] = IC50 class A to E, read-out: Potency Class DYRK1A
[12] = class by IC50 on DYRK1A, from dose-response curves, read-out: Potency Class DYRK1A
[13] = read-out: IC50 on DYRK1A (most potent DYRK1A inhibitors)

T5 sequence (P49760 whole entry, the tested form may be a part): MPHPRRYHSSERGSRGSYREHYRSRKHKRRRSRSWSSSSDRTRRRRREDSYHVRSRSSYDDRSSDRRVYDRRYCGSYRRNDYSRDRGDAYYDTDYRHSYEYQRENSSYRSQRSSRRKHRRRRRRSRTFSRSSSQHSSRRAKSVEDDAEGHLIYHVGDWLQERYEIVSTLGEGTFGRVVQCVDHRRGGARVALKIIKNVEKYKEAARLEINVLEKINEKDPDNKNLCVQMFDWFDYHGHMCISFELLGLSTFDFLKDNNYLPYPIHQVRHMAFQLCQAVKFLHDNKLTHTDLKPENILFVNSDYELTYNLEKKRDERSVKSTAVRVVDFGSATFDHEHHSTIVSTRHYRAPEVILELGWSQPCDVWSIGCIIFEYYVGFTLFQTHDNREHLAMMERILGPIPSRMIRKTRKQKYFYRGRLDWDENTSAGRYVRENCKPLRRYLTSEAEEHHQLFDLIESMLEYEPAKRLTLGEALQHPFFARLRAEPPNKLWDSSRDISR
T2 sequence (Q9HAZ1 whole entry, the tested form may be a part): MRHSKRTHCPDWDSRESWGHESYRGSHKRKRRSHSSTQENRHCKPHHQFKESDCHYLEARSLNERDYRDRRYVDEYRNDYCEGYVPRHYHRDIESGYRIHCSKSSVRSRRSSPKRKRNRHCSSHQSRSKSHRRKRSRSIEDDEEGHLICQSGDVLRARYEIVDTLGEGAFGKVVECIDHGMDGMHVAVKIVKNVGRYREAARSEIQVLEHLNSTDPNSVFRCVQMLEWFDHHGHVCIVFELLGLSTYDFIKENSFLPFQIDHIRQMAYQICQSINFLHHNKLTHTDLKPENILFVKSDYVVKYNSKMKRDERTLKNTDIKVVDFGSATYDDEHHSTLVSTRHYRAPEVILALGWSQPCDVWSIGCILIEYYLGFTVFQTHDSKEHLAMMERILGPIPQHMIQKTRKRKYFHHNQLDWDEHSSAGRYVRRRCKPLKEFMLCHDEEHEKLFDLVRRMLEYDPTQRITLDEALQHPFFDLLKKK
T1 sequence (P49759 whole entry, the tested form may be a part): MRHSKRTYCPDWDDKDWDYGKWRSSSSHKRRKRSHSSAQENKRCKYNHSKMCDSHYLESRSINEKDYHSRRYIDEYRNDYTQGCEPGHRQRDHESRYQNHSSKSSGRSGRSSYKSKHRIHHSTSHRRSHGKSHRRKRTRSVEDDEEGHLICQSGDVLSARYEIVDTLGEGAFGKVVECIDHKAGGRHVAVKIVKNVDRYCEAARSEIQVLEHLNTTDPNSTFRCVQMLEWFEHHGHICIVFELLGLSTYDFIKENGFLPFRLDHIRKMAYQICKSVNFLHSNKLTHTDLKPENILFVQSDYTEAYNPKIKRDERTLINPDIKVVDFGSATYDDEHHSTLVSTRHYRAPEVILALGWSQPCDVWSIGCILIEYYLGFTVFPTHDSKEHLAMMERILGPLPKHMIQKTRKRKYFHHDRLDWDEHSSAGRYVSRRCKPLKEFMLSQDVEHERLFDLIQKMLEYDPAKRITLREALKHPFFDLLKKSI
T4 sequence (Q9Y463 whole entry, the tested form may be a part): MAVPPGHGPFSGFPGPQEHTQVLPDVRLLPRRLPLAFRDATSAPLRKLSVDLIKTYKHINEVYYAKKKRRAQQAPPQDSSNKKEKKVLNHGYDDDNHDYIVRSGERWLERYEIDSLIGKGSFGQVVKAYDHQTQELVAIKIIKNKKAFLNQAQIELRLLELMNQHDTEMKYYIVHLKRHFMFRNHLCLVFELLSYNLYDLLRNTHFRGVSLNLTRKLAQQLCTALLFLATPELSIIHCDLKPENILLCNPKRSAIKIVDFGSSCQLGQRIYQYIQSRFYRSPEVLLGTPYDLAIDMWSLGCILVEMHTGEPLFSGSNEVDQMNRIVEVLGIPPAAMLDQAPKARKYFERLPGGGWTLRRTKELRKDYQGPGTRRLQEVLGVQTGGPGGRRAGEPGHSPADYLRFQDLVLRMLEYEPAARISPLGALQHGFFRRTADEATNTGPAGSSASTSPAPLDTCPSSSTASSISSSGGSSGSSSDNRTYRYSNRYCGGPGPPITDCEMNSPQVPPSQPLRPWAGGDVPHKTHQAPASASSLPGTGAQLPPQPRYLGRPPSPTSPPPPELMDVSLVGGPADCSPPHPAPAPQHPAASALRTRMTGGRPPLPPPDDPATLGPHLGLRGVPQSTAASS
T8 sequence (P49761 whole entry, the tested form may be a part): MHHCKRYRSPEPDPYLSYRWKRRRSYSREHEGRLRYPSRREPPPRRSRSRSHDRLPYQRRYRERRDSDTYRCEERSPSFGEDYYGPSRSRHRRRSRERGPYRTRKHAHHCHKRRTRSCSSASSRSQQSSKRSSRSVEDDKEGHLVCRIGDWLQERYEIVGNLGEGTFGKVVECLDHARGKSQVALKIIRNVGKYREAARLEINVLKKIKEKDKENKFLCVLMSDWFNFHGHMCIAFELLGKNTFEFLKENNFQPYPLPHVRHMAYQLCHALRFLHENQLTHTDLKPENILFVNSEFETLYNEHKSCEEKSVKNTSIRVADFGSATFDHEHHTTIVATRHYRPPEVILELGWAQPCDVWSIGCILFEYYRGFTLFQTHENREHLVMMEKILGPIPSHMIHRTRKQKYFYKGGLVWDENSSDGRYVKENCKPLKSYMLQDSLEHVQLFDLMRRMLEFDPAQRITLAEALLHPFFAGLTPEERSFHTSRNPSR

IC50 [1, 9] [nM]	IC50 [1, 10] [nM]	IC50 [2] [nM]	IC50 [3, 11]	IC50 [3, 12] [nM]	Selectivity Class DYRK1A vs. CLK1 [3]	Selectivity Class DYRK1A vs. DYRK1B [3]	IC50 [3, 13] [nM]	IC50 [4] [nM]	IC50 [5] [nM]	IC50 [6] [nM]	IC50 ([1]; read-out: IC50 on CLK1 (most potent CLK1 inhibitors)) [nM]	IC50 [7] [nM]	IC50 [8] [nM]	SMILES
10 to 25	10 to 25	≤ 10	≤ 5 nM	< 5	II (ratio between 2 and 10 fold)	II (ratio between 2 and 10 fold)	≤ 10	≤ 10	–	–	–	–	–	O=C1NC(NC23CC4CC(CC(O)(C4)C2)C3)=N/C1=C\c1ccc2nccnc2c1 [Compound 18, (4Z)-2-[(3-hydroxy-1-adamantyl)amino]-4-(quinoxalin-6-ylmethylene)-1H-imidazol-5-one]
10 to 25	10 to 25	≤ 10	≤ 5 nM	< 5	II (ratio between 2 and 10 fold)	II (ratio between 2 and 10 fold)	≤ 10	≤ 10	≤ 100	≤ 250	–	–	–	COC12CC3CC(CC(NC4=N/C(=C\c5ccc6nccnc6c5)C(=O)N4)(C3)C1)C2 [Compound 19, (4Z)-2-[(3-methoxy-1-adamantyl)amino]-4-(quinoxalin-6-ylmethylene)-1H-imidazol-5-one]
10 to 25	10 to 25	≤ 10	≤ 5 nM	< 5	II (ratio between 2 and 10 fold)	III (ratio between 0.5 and 2 fold)	≤ 10	≤ 10	≤ 100	≤ 250	≤ 10	≤ 250	–	O=C1NC(NC23CC4CC(CC(F)(C4)C2)C3)=N/C1=C\c1ccc2nccnc2c1 [Compound 20, (4Z)-2-[(3-fluoro-1-adamantyl)amino]-4-(quinoxalin-6-ylmethylene)-1H-imidazol-5-one]
10 to 25	10 to 25	≤ 10	5 to 10 nM	5 to 10	II (ratio between 2 and 10 fold)	II (ratio between 2 and 10 fold)	≤ 10	–	–	≤ 250	–	≤ 250	–	O=C1NC(NC23CC4CC(CC2C4)C3)=N/C1=C\c1ccc2ncccc2c1 [Compound 48, (4Z)-2-(3-noradamantylamino)-4-(6-quinolylmethylene)-1H-imidazol-5-one]
10 to 25	10 to 25	–	10 to 25 nM and 5 to 10 nM	10 to 25	II (ratio between 2 and 10 fold)	III (ratio between 0.5 and 2 fold)	≤ 10	–	≤ 100	–	–	≤ 250	–	O=C1NC(NC23CC4CC(CC(C4)C2)C3)=N/C1=C\c1ccc2ncccc2c1 [Compound 49, (4Z)-2-(1-adamantylamino)-4-(6-quinolylmethylene)-1H-imidazol-5-one]
–	25 to 50	–	–	25 to 50	III (ratio between 0.5 and 2 fold)	III (ratio between 0.5 and 2 fold)	–	–	≤ 100	–	–	≤ 250	–	O=C1NC(NC23CC4CC(CC(C4)C2)C3)=N/C1=C\c1ccc2cnccc2c1 [Compound 61, (4Z)-2-(1-adamantylamino)-4-(6-isoquinolylmethylene)-1H-imidazol-5-one]
10 to 25	10 to 25	≤ 10	≤ 5 nM	< 5	II (ratio between 2 and 10 fold)	II (ratio between 2 and 10 fold)	≤ 10	≤ 10	≤ 100	≤ 250	–	≤ 250	–	COC[C@H](NC1=N/C(=C\c2ccc3ncncc3c2)C(=O)N1)c1ccccc1 [Compound 69, (4Z)-2-[[(1R)-2-methoxy-1-phenyl-ethyl]amino]-4-(quinazolin-6-ylmethylene)-1H-imidazol-5-one]
–	25 to 50	–	–	10 to 25	III (ratio between 0.5 and 2 fold)	II (ratio between 2 and 10 fold)	–	–	–	–	–	–	≤ 500	O=C1NC(NC2CCCCCC2)=N/C1=C\c1ccc2ncccc2n1 [Compound 80, (4Z)-2-(cycloheptylamino)-4-(1,5-naphthyridin-2-ylmethylene)-1H-imidazol-5-one]
–	> 50	–	–	> 50	IV (ratio between 0.1 and 0.5 fold)	IV (ratio between 0.1 and 0.5 fold)	–	–	–	≤ 250	–	≤ 250	–	CN1C(=O)/C(=C/c2ccc3cnccc3c2)N=C1NC1CCCCCC1 [Compound 87, (5Z)-2-(Cycloheptylamino)-3-methyl-5-(isoquinolin-6-ylmethylene)imidazol-4-one]
